# Source: patent publication US11458138B2 (Novartis AG, priority 2017, dated 2022)
# Legend:
# [1] = tested on: corneal endothelium cell population; test: FACS analysis of expanded corneal endothelium cell population (CD73, CD44, CD166, CD105); type: cell-based, human; details: vs CECs cultured without LATS inhibitor (high levels)
# Excerpt: FIG. 21: FACS analysis of the corneal endothlelium cell population expanded in the presence of the LATS inhibitor, compound ex. 47, and CECs cultured in the absence of a LATS inhibitor. The cell population expanded in the presence of the LATS inhibitor expresses low levels of CD73 (FIG. 21a, grey line), CD44 (FIG. 21b, grey line), CD166 (FIG. 21c, grey line) and CD105 (FIG. 21d, grey line); while the cell population cultured without the LATS inhibitor expresses high levels of CD44, CD73, CD105 and CD166 (black lines).
# (4) The cells express relatively low levels of CD73. The relative expression levels are lower than cells which have undergone endothelial to mesenchymal transition. The expression of CD73 may be estimated by standard techniques known in the art, such as for example FACS analysis or immunohistochemistry.
# [2] = tested on: limbal stem cells (LSCs); test: Differentiation of expanded LSCs into corneal epithelium cells (p63alpha / keratin 12); type: cell-based, human; details: transferred to conditions that enable differentiation
# Excerpt: Shown are views where the transition from the p63alpha-positive cell identity to the keratin-12 identity are occurring.
# These characteristics can be observed by immunohistochemistry or FACS.
# [3] = tested on: Ki67-positive hepatocytes; test: In vivo treatment of mice: immunohistochemistry (IHC) for Ki67 in liver; details: mouse liver, single oral dose 30 mg/kg, 24 h post-dose, relative to vehicle, mean+/-SEM
# Method: (§1) All animal studies were carried out in accordance with federal, state, local and institutional guidelines governing the use of laboratory animals in research. Male C57BL/6J mice (age 8-10 weeks) were purchased from Jackson Labs (Bar Harbor, Me.). Example 46 was formulated for oral dosing at 3 mg/ml, and Example 261 at 1 mg/ml, in a suspension of methylcellulose:Tween80:Water (0.5:0.5:99). Single oral dose of either compound was at 10 mL/kg body weight. Blood and liver tissue were collected under deep anesthesia (isoflurane) at either 2 h post-dose (for mRNA analysis) or 24 h post-dose (for immunohistochemistry).
# Liver tissue was fixed in 10% neutral buffered formalin for 24-48 h. Processing and embedding in paraffin was by standard procedures. Sections were cut at 5 microns thickness and stained using a Ventana automated system. Primary antibody for mouse Ki67 was a rabbit IgG (Bethyl Labs). Ki67-positive hepatocytes were quantified by image analysis using the HALO platform. At least 3 sections per animal were analyzed, from the middle of the medial lobe.
# [4] = tested on: Phospho-YAP (SER127) in liver tissue; test: In vivo treatment of mice: Phospho-YAP (pYAP) HTRF in liver tissue; details: mouse liver, single oral dose 30 mg/kg
# Method: as §1
# Frozen liver tissue was transferred into a Lysing Matrix tube (MP, cat #6913-500) with a 1:50 solution of Protease inhibitor (Sigma-Aldrich, cat #P8340) in Phosphosafe extraction buffer (Novagen, cat #71296-3) and homogenized using the FastPrep-24 (MP biomedicals). […] The protein concentration was measured using the BCA Protein Assay Kit (Pierce cat. 23227) following the manufacturer's protocol. […] The same input quantity was used for each sample, based on total protein content (30-60 ug per sample per well). […] Plates were read on an EnVision (PerkinElmer) with emission wavelengths of 665 nm & 620 nm. The HTRF signal ratio was calculated as Signal(665 nm)/Signal(620 nm))×10000 as specified in the manufacturer's protocol. […]
# [5] = tested on: CTGF mRNA in liver; test: In vivo treatment of mice: quantitative RT-PCR, CTGF; details: mouse liver, single oral dose 30 mg/kg, 2 h post-dose, relative to vehicle, mean+/-SEM
# Method: as §1
# (§2) Total liver RNA was isolated from tissue after storage in RNAlater reagent (Qiagen), using a TRIzol method according to the manufacturer's instructions (Life Technologies). Relative mRNA abundance was measured by quantitative RT-PCR using TaqMan gene expression assays and reagents according to standard protocols (Applied Biosystems). Mouse probes for YAP target genes were CTGF (Mm01192933_g1) and Cyr61 (Mm00487498_m1). […] Relative changes in mRNA were calculated by the ΔΔCt method. Changes in gene expression with compound treatment are expressed as fold-change relative to the vehicle group.
# [6] = molecular target: LATS1 (Homo sapiens (Human), UniProt O95835); test: LATS1 biochemical assay (Table 1A, Compound Examples 1-290; method in the earlier part)
# [7] = tested on: Cyr61 mRNA in liver; test: In vivo treatment of mice: quantitative RT-PCR, Cyr61; details: mouse liver, single oral dose 30 mg/kg, 2 h post-dose, relative to vehicle, mean+/-SEM
# Method: as §1, §2
# [8] = tested on: YAP nuclear translocation in HaCaT cells; test: YAP Translocation Assay (HaCaT Cells); type: cell-based, human; details: Homo sapiens, 24 hours
# Outline: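 HaCaT cells (20,000/well) in DMEM + 10% FBS were plated overnight at 37° C, then exposed to compound for 24 h at 37° C. Cells were fixed with PFA, permeabilized with 0.1% Triton/1.5% BSA and imaged by high-content imaging.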
# Chain of LATS1 (O95835 whole entry, looked up): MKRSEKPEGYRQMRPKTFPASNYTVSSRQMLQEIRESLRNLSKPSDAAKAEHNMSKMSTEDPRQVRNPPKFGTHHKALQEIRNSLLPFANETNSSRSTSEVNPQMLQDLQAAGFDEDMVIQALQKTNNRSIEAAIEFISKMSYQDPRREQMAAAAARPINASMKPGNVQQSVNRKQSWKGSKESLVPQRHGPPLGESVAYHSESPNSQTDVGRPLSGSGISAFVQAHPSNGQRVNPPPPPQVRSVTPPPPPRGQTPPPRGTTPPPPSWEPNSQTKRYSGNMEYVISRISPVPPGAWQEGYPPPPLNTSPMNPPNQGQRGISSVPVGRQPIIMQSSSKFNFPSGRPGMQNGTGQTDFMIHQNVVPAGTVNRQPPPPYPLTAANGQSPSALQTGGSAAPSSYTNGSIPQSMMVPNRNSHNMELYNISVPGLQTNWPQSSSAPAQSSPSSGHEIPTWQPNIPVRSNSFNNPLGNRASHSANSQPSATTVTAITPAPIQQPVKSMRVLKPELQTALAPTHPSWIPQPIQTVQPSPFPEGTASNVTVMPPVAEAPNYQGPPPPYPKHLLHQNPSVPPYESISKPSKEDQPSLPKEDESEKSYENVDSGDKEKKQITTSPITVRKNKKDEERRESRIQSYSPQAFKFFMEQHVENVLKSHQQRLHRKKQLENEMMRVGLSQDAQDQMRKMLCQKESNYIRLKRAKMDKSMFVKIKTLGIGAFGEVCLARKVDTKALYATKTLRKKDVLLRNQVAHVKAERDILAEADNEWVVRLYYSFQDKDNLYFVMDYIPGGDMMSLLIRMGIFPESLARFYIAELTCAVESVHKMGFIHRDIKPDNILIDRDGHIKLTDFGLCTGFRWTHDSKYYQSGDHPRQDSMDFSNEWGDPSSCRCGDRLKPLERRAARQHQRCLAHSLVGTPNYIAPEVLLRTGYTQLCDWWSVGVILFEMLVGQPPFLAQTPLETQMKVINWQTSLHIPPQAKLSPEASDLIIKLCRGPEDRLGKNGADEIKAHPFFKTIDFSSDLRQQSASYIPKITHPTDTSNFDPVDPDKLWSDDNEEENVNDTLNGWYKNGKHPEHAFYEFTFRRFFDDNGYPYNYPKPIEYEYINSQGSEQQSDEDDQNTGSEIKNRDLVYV
# Chain of LATS1 (Q7L9L4 whole entry partner, looked up): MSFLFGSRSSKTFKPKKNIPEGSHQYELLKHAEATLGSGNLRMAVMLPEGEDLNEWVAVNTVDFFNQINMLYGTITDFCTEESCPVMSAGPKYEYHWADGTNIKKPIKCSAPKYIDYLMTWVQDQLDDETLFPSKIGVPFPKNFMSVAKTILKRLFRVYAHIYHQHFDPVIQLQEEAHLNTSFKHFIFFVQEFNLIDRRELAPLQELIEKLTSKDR
SMILES,"expression of CD73, CD44, CD166 and CD105 by FACS [1]",differentiation of expanded LSCs into corneal epithelium cells (keratin 12) [2],Ki67 IHC (fold-change) [3],pYAP (% of control) [4],CTGF mRNA (fold-change) [5],IC50 [6],Cyr61 mRNA (fold-change) [7],EC50 [8]
"CC(N(C)c1nc(-c2ccncc2)nc2cnccc12)C(F)(F)F (racemic) [Example 47, N-methyl-2-(pyridin-4-yl)-N-(1,1,1-trifluoropropan-2-yl)pyrido[3,4-d]pyrimidin-4-amine]",low levels,can differentiate into corneal epithelium cells,,,,,,
"c1cc(-c2nc(NCCCc3nnn[nH]3)c3ccncc3n2)ccn1 [Example 46, 2-(pyridin-4-yl)-N-[3-(1H-1,2,3,4-tetrazol-5-yl)propyl]pyrido[3,4-d]pyrimidin-4-amine]",,,3.3 (+/−0.2) fold-change,64 % of control,2.1 (+/−0.4) fold-change,> 2500 nM,3.5 (+/−0.5) fold-change,> 20 µM
